Data set [1] relates to HCT-116 (human colon cancer cell line). Kind of data set: MTT assay, cytotoxicity against HCT-116. The class given is cell-based. The note with it: read-out: IC50 HCT-116. How it is done: (§1) All the synthesized derivatives of HO were tested for their antiproliferative activity against four human cancer cell lines, including the HCT-116, A375, A-549, and Huh-7 cell lines, using the MTT assay. Cisplatin was used as a positive control, while lead compound HO (1) was also included in the study for comparison.
(§2) HCT-116 (Human colon cancer cell line), A375 (human melanoma cancer cell line), A-549 (human lung adenocarcinoma cell line), Huh-7 (human hepatoma cancer cell line), and L-02 (normal hepatic cell line) were purchased from the Cell Bank of Shanghai Institute of Biochemistry and Cell Biology, Chinese Academy of Sciences (Shanghai, China). The cells were cultured in Dulbecco’s modified Eagle medium (DMEM; NY, USA), which were all supplemented with 10% fetal bovine serum (FBS; NY, USA) at 37 °C with 5% CO2.
(§3) The cytotoxic activity was evaluated using the MTT assay. Briefly, cells were seeded in 96-well plates at a density of 5 × 10^3 cells/well in 100 μL of DMEM medium at 37 °C for 24 h. Stock solutions of test compounds were prepared in DMSO at concentration of 50 mM, and twofold serial dilution with a culture medium was performed to obtain appropriate concentrations right before the assay. After that, the cells were incubated with synthetic derivatives or cisplatin as a positive control at the various concentrations (0.78125-50 μM) for 48 h. Then, 20 μL of 3-(4,5-Dimethylthiazol-2-yl)-2,5-diphenyltetrazolium bromide (MTT, Aladdin, Shanghai, China) solution (5 mg/mL in PBS) was added, and then the cells were incubated at 37 °C for an additional 4 h. The supernatant was removed, and 150 μL of dimethyl sulfoxide was added to dissolve the MTT formazan. The optical density (OD) was measured on a microplate reader (SpectraMax Plus 384, Molecular Devices, Sunnyvale, CA, USA) at a wavelength of 570 nm. The cytotoxic activity was expressed as the IC50 values. The above tests were repeated three times in parallel. Vehicle DMSO (0.1%) was used as a negative control.

Data set [2] has as its system A375 (human melanoma cancer cell line). The data set can be described thus: MTT assay, cytotoxicity against A375. In kind it is cell-based. The note with it: read-out: IC50 A375. The procedure: as §1, §2, §3
Data set [3] relates to A-549 (human lung adenocarcinoma cell line). Kind of data set: MTT assay, cytotoxicity against A549. The note with it: read-out: IC50 A549. The class given is cell-based. How it is done: as §1, §2, §3
Data set [4] relates to Huh-7 (human hepatoma cancer cell line). The data set can be described thus: MTT assay, cytotoxicity against Huh-7. In kind it is cell-based. Particulars: read-out: IC50 Huh-7. How it is done: as §1, §2, §3
In data set [5] the test system is HCT-116, A375, A549, and Huh-7 cells. Kind of data set: MTT assay, statements for the whole panel of tested cancer cells. The class given is cell-based, human. Particulars: for cytotoxic activities against four tested cancer cells (result in words): HCT-116, A375, A549, Huh-7, tested up to 50 μM; for IC50: Homo sapiens, all tested cancer cells (HCT-116, A375, A549, Huh-7), read-out: IC50 against tested cells; for cytotoxic activities against three other cancer cell lines (result in words): cell lines other than A549. The procedure:
as §1, §2, §3

[6] abbreviates: Homo sapiens, HCT-116, 48 h, MTT, 48 h, HCT-116 cells.
Where [7] appears, read: Homo sapiens, A-375, 48 h, MTT, 48 h, A375 cells.
Setting [8] is: Homo sapiens, A549, 48 h, MTT, 48 h, A549 cells.
[9] abbreviates: Homo sapiens, Huh-7, 48 h, MTT, 48 h, Huh-7 cells.

Structures are written as SMILES. Entries after “also recorded” stand apart in the source; their conditions may differ. Read-outs that look alike come from different tables or passages of the source.

The record followed here is paper PMC7961763, “Semi-Synthesis of Harringtonolide Derivatives and Their Antiproliferative Activity” (Molecules, 2021).

Consider `COc1c2c3c(c(C)cc1=O)C1OC4C5OC(=O)C(CC2)(C4C)C3C15` [Compound 9, (3R,4aR,10aS,11S)-8-methoxy-5,11-dimethyl-2a,3,4a,9,10,10a1-hexahydro-1H-2,4-dioxa-3,10a-methanocyclohepta[bc]cyclopenta[jk]acenaphthylene-1,7(2a1H)-dione], for which the IC50 was > 50 µM in data set [1] (Homo sapiens, HCT-116, 48 h); > 50 µM in data set [2] (Homo sapiens, A-375, 48 h); > 50 µM in data set [3] (Homo sapiens, A549, 48 h); > 50 µM in data set [4] (Homo sapiens, Huh-7, 48 h). Besides, in data set [5], the “cytotoxic activities against four tested cancer cells (result in words)” value is “inactive; also recorded: losing of cytotoxic activities”.

Consider `Cc1cc(=O)cc2c3c1C1OC4C5OC(=O)C(CC2O)(C4C)C3C15` [Compound 12, (3R,4aR,9R,10aS,11S)-9-hydroxy-5,11-dimethyl-2a,3,4a,9,10,10a1-hexahydro-1H-2,4-dioxa-3,10a-methanocyclohepta[bc]cyclopenta[jk]acenaphthylene-1,7(2a1H)-dione], for which the IC50 was 31.9 ± 0.69 µM in data set [1] (MTT, 48 h, HCT-116 cells); 40.4 ± 7.58 µM in data set [2] (MTT, 48 h, A375 cells); 34.7 ± 1.94 µM in data set [3] (MTT, 48 h, A549 cells); > 50 µM in data set [4] (MTT, 48 h, Huh-7 cells).

In the case of `Cc1cc(=O)cc2c3c1C1OC4C5OC(=O)C(CC2=O)(C4C)C3C15` [Compound 13, (3R,4aR,10aS,11S)-5,11-dimethyl-2a,3,4a,10a1-tetrahydro-1H-2,4-dioxa-3,10a-methanocyclohepta[bc]cyclopenta[jk]acenaphthylene-1,7,9(2a1H,10H)-trione], the IC50 in data set [1] (setting [6]), in data set [2] (setting [7]), in data set [3] (setting [8]), in data set [4] (setting [9]) and in data set [5] was > 50 µM throughout.

Regarding `Cc1ccc2c3c1C1OC4C5OC(=O)C(CC2=O)(C4C)C3C15` [Compound 7, (3R,4aR,9aS,10S)-5,10-dimethyl-2a,2a1,4a,9a1-tetrahydro-1H,3H-2,4-dioxa-3,9a-methanopentaleno [4,3,2,1-cdef]phenanthrene-1,8(9H)-dione], the IC50 in data set [1] (setting [6]), in data set [2] (setting [7]), in data set [3] (setting [8]) and in data set [4] (setting [9]) was > 50 µM in each case. Further, the “cytotoxic activities against four tested cancer cells (result in words)” value in data set [5] is “inactive; also recorded: losing of cytotoxic activities”.

In the case of `N.N.[Cl][Pt][Cl]` [Cisplatin, reference compound], the IC50 in data set [1] (MTT, 48 h, HCT-116 cells) was determined as 4.48 ± 0.18 µM; in data set [2] (MTT, 48 h, A375 cells), 4.04 ± 0.23 µM; in data set [3] (MTT, 48 h, A549 cells) it was 8.53 ± 0.98 µM; in data set [4] (MTT, 48 h, Huh-7 cells), 15.04 ± 0.15 µM.

On to `Cc1cc(=O)cc2c3c1C1OC4C5OC(=O)C(CC2OC(=O)c2nc(C)c(C)nc2C)(C4C)C3C15` [Compound 11f, (3R,4aR,9S,10aS,11S)-5,11-dimethyl-1,7-dioxo-2a,2a1,3,4a,7,9,10,10a1-octahydro-1H-2,4-dioxa-3,10a-methanocyclohepta[bc]cyclopenta[jk]acenaphthylen-9-yl 3,5,6-trimethylpyrazine-2-carboxylate], for which the IC50 was 10.8 ± 0.42 µM in data set [1] (setting [6]), 18.6 ± 2.23 µM in data set [2] (setting [7]), 25.9 ± 0.68 µM in data set [3] (setting [8]) and > 50 µM in data set [4] (setting [9]). The “cytotoxic activities against three other cancer cell lines (result in words)” value in data set [5] is recorded as “weak cytotoxic activities”.

For `CC(=O)Nc1c2c3c(c(C)cc1=O)C1OC4C5OC(=O)C(CC2)(C4C)C3C15` [Compound 3, N-((3R,4aR,10aS,11S)-5,11-dimethyl-1,7-dioxo-2a,2a1,3,4a,7,9,10,10a1-octahydro-1H-2,4-dioxa-3,10a-methanocyclohepta[bc]cyclopenta[jk]acenaphthylen-8-yl) acetamide], the IC50 in data set [1] (setting [6]), in data set [2] (setting [7]), in data set [3] (setting [8]) and in data set [4] (setting [9]) was > 50 µM each time. Besides, the “cytotoxic activities against four tested cancer cells (result in words)” value in data set [5] is given as “losing of cytotoxic activities”.

With `Cc1cc(=O)cc2c3c1C1OC4C5OC(=O)C(CC2OC(=O)c2ccccn2)(C4C)C3C15` [Compound 11e, (3R,4aR,9S,10aS,11S)-5,11-dimethyl-1,7-dioxo-2a,2a1,3,4a,7,9,10,10a1-octahydro-1H-2,4-dioxa-3,10a-methanocyclohepta[bc]cyclopenta[jk]acenaphthylen-9-yl picolinate], the concentration for half-maximal inhibition (IC50) in data set [1] (setting [6]) is 5.47 ± 0.27 µM; in data set [2] (setting [7]), 7.08 ± 0.42 µM; in data set [3] (setting [8]), 18 ± 4.18 µM; in data set [4] (setting [9]), > 50 µM. Further, the “cytotoxic activities against three other cancer cell lines (result in words)” value in data set [5] is on record as “weak cytotoxic activities”.

Consider `Cc1cc(=O)cc2c3c1C1OC4C5OC(=O)C(CC2Br)(C4C)C3C15` [Compound 8, (3R,4aR,9R,10aS,11S)-9-bromo-5,11-dimethyl-2a,3,4a,9,10,10a1-hexahydro-1H-2,4-dioxa-3,10a-methanocyclohepta[bc]cyclopenta[jk]acenaphthylene-1,7(2a1H)-dione], for which the IC50 in data set [1] (setting [6]) came to 2.19 ± 0.23 µM; in data set [2] (setting [7]) it was 3.4 ± 0.22 µM; in data set [3] (setting [8]) it was 43.4 ± 1.08 µM; in data set [4] (setting [9]), 30.8 ± 0.6 µM.

Regarding `Cc1cc(=O)cc2c3c1C1OC4C5OC(O)C(CC2)(C4C)C3C15` [Compound 4, (1R,3R,4aR,10aS,11S)-1-hydroxy-5,11-dimethyl-2a,3,4a,9,10,10a1-hexahydro-1H-2,4-dioxa-3,10a-methanocyclohepta[bc]cyclopenta[jk]acenaphthylen-7(2a1H)-one], the IC50 in data set [1] (setting [6]), in data set [2] (setting [7]), in data set [3] (setting [8]) and in data set [4] (setting [9]) was > 50 µM throughout. Also, the “cytotoxic activities against four tested cancer cells (result in words)” value in data set [5] was “losing of cytotoxic activities”.

With `CC(=O)OC1CC23C(=O)OC4C(OC5c6c(C)cc(=O)cc1c6C2C54)C3C` [Compound 11a, (3R,4aR,9S,10aS,11S)-5,11-dimethyl-1,7-dioxo-2a,2a1,3,4a,7,9,10,10a1-octahydro-1H-2,4-dioxa-3,10a-methanocyclohepta[bc]cyclopenta[jk]acenaphthylen-9-yl acetate], the IC50 in data set [1] (setting [6]) is 5.95 ± 0.45 µM; in data set [2] (setting [7]), 30.1 ± 1.58 µM; in data set [3] (setting [8]), 27.5 ± 0.89 µM; in data set [4] (setting [9]), > 50 µM. For the same compound, in data set [5], the “cytotoxic activities against three other cancer cell lines (result in words)” value is listed as “weak cytotoxic activities”.

On to `CC(=O)OC1OC2C3OC4c5c(C)cc(=O)cc6c5C(C42)C1(CC6)C3C` [Compound 5, (1S,3R,4aR,10aS,11S)-5,11-dimethyl-7-oxo-2a,2a1,3,4a,7,9,10,10a1-octahydro-1H-2,4-dioxa-3,10a-methanocyclohepta[bc]cyclopenta[jk]acenaphthylen-1-yl acetate], for which the IC50 in data set [1] (setting [6]), in data set [2] (setting [7]), in data set [3] (setting [8]) and in data set [4] (setting [9]) was > 50 µM throughout. The “cytotoxic activities against four tested cancer cells (result in words)” value in data set [5] is “losing of cytotoxic activities”.

As to `Cc1cc(=O)cc2c3c1C1OC4C5OC(=O)C(CC2OC(=O)c2ccco2)(C4C)C3C15` (stereo not shown) [Compound 11c], the IC50 in data set [1] (setting [6]) is 11 ± 0.34 µM; in data set [2] (setting [7]), 16.4 ± 1.92 µM; in data set [3] (setting [8]) it was 23.2 ± 0.67 µM; in data set [4] (setting [9]), > 50 µM. Moreover, the “cytotoxic activities against three other cancer cell lines (result in words)” value in data set [5] was “weak cytotoxic activities”.

With `Cc1cc(=O)cc2c3c1C1OC4C5OC(=O)C(CC2OC(=O)CCC(=O)O)(C4C)C3C15` [Compound 11b, 4-(((3R,4aR,9S,10aS,11S)-5,11-dimethyl-1,7-dioxo-2a,2a1,3,4a,7,9,10,10a1-octahydro-1H-2,4-dioxa-3,10a-methanocyclohepta[bc]cyclopenta[jk]acenaphthylen-9-yl)oxy)-4-oxobutanoic acid], the half-maximal inhibitory concentration (IC50) in data set [1] (setting [6]), in data set [2] (setting [7]), in data set [3] (setting [8]), in data set [4] (setting [9]) and in data set [5] was > 50 µM each time.
